Here are results for six compounds from ChEMBL document CHEMBL1131266, “Synthesis and pharmacological evaluation of new flosulide analogues, synthesized from natural safrole” (1998).

Assay [1] deals with Rattus norvegicus. In words: Percent inhibition of edema in carrageenan-induced rat paw edema was determined by comparing with vehicle control group when tested on 14 rats at peroral dose of 100 umol/Kg; Not significant. It is filed as functional. As to conditions: po.
For assay [2], the system named is Rattus norvegicus. In words: Percent inhibition of pleural inflammation in carrageenan-induced rat model was determined by comparing with vehicle control group when tested on 5 rats at peroral dose of 100 umol/Kg. As to conditions: po. The class given is functional.
Assay [3] deals with Rattus norvegicus. In words: Percent inhibition of edema in carrageenan-induced rat paw edema was determined by comparing with vehicle control group when tested on 5 rats at peroral dose of 100 umol/Kg. It is filed as functional. As to conditions: po.
Assay [4] has as its system Rattus norvegicus. Put plainly: Percent inhibition of edema in carrageenan-induced rat paw edema was determined by comparing with vehicle control group when tested on 10 rats at peroral dose of 100 umol/Kg. It is filed as functional. The following applies: po.
The test system of assay [5] is Rattus norvegicus. In words: Percent inhibition of pleural inflammation in carrageenan-induced rat model was determined by comparing with vehicle control group when tested on 10 rats at peroral dose of 100 umol/Kg. It is filed as functional. The following applies: po.
For assay [6], the species on record is Rattus norvegicus. Put plainly: animal or person. The following applies: po, read-out: Inhibition.
Description: Percent inhibition of pleural inflammation in carrageenan-induced rat model was determined by comparing with vehicle control group when tested on 8 rats at peroral dose of 100 umol/Kg

In the case of `CNS(=O)(=O)c1cc2c(cc1Cc1ccccc1)OCO2`, the inhibition in vivo at 100 µmol/kg with Rattus norvegicus [1] was determined as 2.7%; in the assay with Rattus norvegicus [2], 46%.

As to `CS(=O)(=O)Nc1cc2c(cc1Cc1cccc(C(F)(F)F)c1)OCO2`, the figures for the inhibition in vivo at 100 µmol/kg in the assay on Rattus norvegicus [2] and with Rattus norvegicus [3] were 24.6% and 19.7%, respectively.

As to `CS(=O)(=O)Nc1cc2c(cc1Cc1ccccc1)OCO2`, the inhibition in vivo at 100 µmol/kg turned out to be 21% with Rattus norvegicus [4] and 43.1% with Rattus norvegicus [2].

In the case of `O=S(=O)(Nc1ccccc1)c1cc2c(cc1Cc1ccccc1)OCO2`, the inhibition in vivo at 100 µmol/kg in the assay with Rattus norvegicus [2] turned out to be 24.6%; in the assay with Rattus norvegicus [3], 27.2%.

Take `COc1ccc2c(c1)c(CC(=O)O)c(C)n2C(=O)c1ccc(Cl)cc1` [INDOMETHACIN]: the inhibition in vivo at 100 µmol/kg with Rattus norvegicus [5] stood at 31.7%; in the assay on Rattus norvegicus [3], 85.4%.

For the compound `CS(=O)(=O)Nc1ccc([N+](=O)[O-])cc1Oc1ccccc1` [NIMESULIDE], the values for the inhibition in vivo at 100 µmol/kg in the assay with Rattus norvegicus [3] and in the assay listed under Rattus norvegicus [6] were 61.7% and 29.9%, respectively.
